The text below walks through data of patent US3941842A, “P,P'-Disubstituted α-trichloromethylbenzylanilines” (priority 1972, dated 1976).

A word on the LD50: it is the dose at which mortality reaches 50%.

Data set [1] is described as follows: Model ecosystem: distribution, ecological magnification and Biodegradability Index. Conditions: for ecological magnification (E.M.): ratio of parent material in fish to concentration in water. An excerpt:
After the amounts of the various metabolites have been calculated and a determination is made as to which of the metabolites are to be designated as "polar" and which are to be designated as "non-polar", a Biodegradability Index (amount of polar metabolites/amount of nonpolar metabolites) may be calculated. Remembering that nonpolar compounds, such as DDT are readily soluble in the fatty tissues, but are not readily soluble in water based solutions, and that the cell fluid is essentially a water based solution, the lower the Biodegradability Index, the lower the amount of biodegradability of the compound. The higher the amount of polarity, the greater the likelihood that the polar compound will dissolve in water, a very polar compound, and be eliminated from the cell.
The environmental fate of any new pesticide is a factor of paramount importance in determining how and where it might be used. The behavior of ^3 H-α-trichloromethyl-p-ethoxybenzyl-p-ethoxyaniline has been studied by the model ecosystem technique following application of 5.0 mg. of labeled compound to Sorghum plants. A summary of
metabolites from the organisms in the model ecosystem after 33 days were
identified by cochromatography with standards of known constitution, by
appropriate chromogenic reagents, and by high-resolution mass
spectrometry. The data of Table IV indicate the O-dealkylation of
Food Chem. 1 (1972). Ethoxychlor was found in the snail to 58.6 ppm and in the fish to 0.92 ppm, along with its ethylene and the mono- and bis-phenols formed by O-dealkylation. The ecological magnification (E.M.) of ethoxychlor, defined as the ratio of the parent material in the fish to the concentration in the water, was 1500-fold as compared with an E.M. of only 0.7-fold for the ethoxyaniline.
Comparing the Biodegradability Indices (B.I.=total recovered polar metabolites/total recovered nonpolar metabolites) the values are 0.44 for ethoxychlor and 2.0 for ethoxyaniline.

For data set [2] the following is noted: background; cited from earlier work.
The conditions of data set [3]: background; cited from earlier work. This is another data set of the same source.
Data set [4] concerns insects. The following applies: background; cited from earlier work.
For data set [5], the system named is multifunction oxidase (MFO) enzymes. The following applies: background; cited from earlier work.
Data set [6] deals with Musca domestica Snaidm. The experiment in a line: Topical LD50 to adult female SNAIDM houseflies.
Data set [7] has as its system Musca domestica Rsp. Description: Topical LD50 to adult female RSP houseflies.
Data set [8] concerns Phormia regina. Description: whole plant or invertebrate. Conditions: topical.
Data set [9] concerns Culex fatigans larvae. The experiment in a line: LC50 to Culex fatigans larvae. It counts as in vivo, Culex pipiens quinquefasciatus Say. An excerpt:
(§1) World Health Org. 363 (1971). […] Food Chem. 1145 (1970). […] Sci. Tech. 709 (1971). The results are detailed in Table II. ##SPC1##

Data set [10] deals with Anopheles albimanus larvae. The experiment in a line: LC50 to Anopheles albimanus larvae. In kind it is in vivo, Anopheles albimanus Weid.
Source text: as §1

For data set [11], the system named is Female housefly. The experiment in a line: Metabolism of 3H-ethoxyaniline by female RSP housefly. How it is done: (§2) The compounds of the present invention were tested for insecticidal activity by standard methods, and compared with the insecticidal activities of DDT and symmetrical analogs of DDT, such methoxychlor. Toxicological methods for the determination of the topical LD50 values to adult female SNAIDM and RSP houseflies, Musca domestica L. and to Phormia regina, and LC50 values to Culex pipiens quinquefasciatus Say, and Anopheles albimanus Weid mosquitoes were described by Metcalf el al., 44 Bull. World Health Org. 363 (1971). The methods for evaluation of metabolism by mouse liver homogenate and by female RSP housefly and salt-marsh caterpillar larvae Estigmene acrea Drury, were described by Kapoor et al., 18 J. Agr. Food Chem. 1145 (1970). The techniques for model eocsystem evluation were described by Metcalf et al., 5 J. Environ. Sci. Tech. 709 (1971).
(§3) The biodegradability of an insecticide may be measured by administering measured doses of a tritium labeled test insecticide to a subject. Some time later the subject is sacrificed, liquefied, and a sample of the liquefied insect is placed on a thin layer chromotagraphy (tlc) plate. The plate is developed in a suitable solvent and Rf values of the various compounds contained in the sample are measured against known Rf values of previously synthesized theoretical metabolic breakdown products. The amount of each metabolite present may thus be measured by measuring the ^3 H at each separately resolved spot on the tlc plate. A permanent record may be made by exposing film to the plate to form a ratioautograph.

In data set [12] the test system is Salt-marsh caterpillar. The experiment in a line: Metabolism of 3H-ethoxyaniline by salt-marsh caterpillar larvae. How it is done:
as §2, §3

Data set [13] is described as follows: Metabolism of 3H-labeled compound by mouse liver homogenate. How it is done:
as §2, §3

Where [14] appears, read: synergistic ratio: LD50 alone/LD50 synergized with piperonyl butoxide.
Where [15] appears, read: female RSP housefly, topical 1.0 μg, 24 hr.

Entries after “also recorded” stand apart in the source; their conditions may differ.

Turning to `Clc1ccc(C(c2ccc(Cl)cc2)C(Cl)(Cl)Cl)cc1` [DDT, 1,1,1 trichloro-2,2-bis(p-chlorophenyl)ethane], the “ecological magnification (E.M.)” value in data set [1] was 84,000 fold. Besides, in data set [1] (total recovered polar/total recovered nonpolar metabolites), the “Biodegradability Index (B.I.)” value worked out at 0.015. Moreover, in data set [2], the “lipid solubility (in words)” value is given as “high lipid solubility” and the “water solubility (in words)” value was “very low water solubility”. The “accumulation in animal tissues (in words)” value in [3] is listed as “accumulation in the fatty or lipid tissues of animals”. The “insecticidal activity (in words)” value in data set [4] is on record as “effective contact or residual insecticide”. In [5], the “biodegradability (in words)” value is listed as “not biodegradable”; the “susceptibility to MFO enzymes (in words)” value was “do not function on DDT and its metabolic derivatives DDE and DDD”.

Take `CCOc1ccc(NC(c2ccc(OCC)cc2)C(Cl)(Cl)Cl)cc1` (stereo not drawn) [Compound III, α-trichloromethyl-p-ethoxybenzyl-p-ethoxyaniline]: the LD50 in data set [6] (Musca domestica, topical, read-out: Topical LD50, Musca domestica Snaidm, Alone) is 15.5 mg/kg. Further, in data set [6] (SNAIDM strain, synergized with piperonyl butoxide, topical), the “Topical LD50, Musca domestica Snaidm, with pb” value was 4.2 μg per g. In addition, the “SR, Musca domestica Snaidm” value in data set [6] (setting [14]) is 3.7. Further, in data set [7] (Musca domestica, topical, read-out: Topical LD50, Musca domestica Rsp, Alone), the LD50 worked out at 20.5 mg/kg. Moreover, the “Topical LD50, Musca domestica Rsp, with pb” value in data set [7] (RSP strain, synergized with piperonyl butoxide, topical) is recorded as 6.5 μg per g. Further, the “SR, Musca domestica Rsp” value in [7] (setting [14]) was 3.2. The LD50 in data set [8] (Phormia regina, read-out: Topical LD50, Phormia regina, Alone) came out at 33.7 mg/kg. In addition, in [8] (synergized with piperonyl butoxide), the “Topical LD50, Phormia regina, with pb” value came out at 9.7 μg per g. Moreover, the “LC50 Culex fatigans larvae” value in data set [9] was determined as 0.19 ppm. Also, in data set [10], the “LC50 Anopheles albimanus larvae” value turned out to be 0.28 ppm. In addition, the “Female housefly, percent 3H in Excreta” value in [11] (24 hr after topical 1.0 μg 3H-ethoxyaniline (compound III), excreta) is 22.9%. Also, the “Female housefly, percent 3H in Homogenate” value in [11] (24 hr after topical 1.0 μg 3H-ethoxyaniline (compound III), homogenate) amounted to 37.6%. In addition, in data set [11] (setting [15]), the “3H recovered as body homogenate” value is on record as 65%, the “3H recovered as body wash” value was 19.2% and the “3H recovered as excreta” value amounted to 10%. For the same molecule, the “recovery of the 3H” value in data set [11] (female RSP housefly, topical 1.0 μg, 24 hr, total) was 94.2%. In addition, the “metabolic pathway in insect and mammal (in words)” value in data set [11] (insects (housefly, caterpillar) and mouse liver homogenate) was “metabolized in both the insect and the mammal by O-dealkylation to form both mono- and bis- phenols”. Besides, in data set [12] (4th instar larvae, 0.5 mg fed, 24 hr), the “3H recovered in excreta” value was 75%. In data set [12] (24 hr after feeding 0.5 mg 3H-ethoxyaniline (compound III), excreta), the “Salt-marsh caterpillar, percent 3H in Excreta” value came to 2.5%. The “Salt-marsh caterpillar, percent 3H in Homogenate” value in [12] (24 hr after feeding 0.5 mg 3H-ethoxyaniline (compound III), homogenate) was found to be 9.0%. The “Mouse liver, percent 3H in homogenate” value in data set [13] (0.01 μM 3H-labeled compound III, 1 hr incubation, NADPH and nicotinamide) is listed as 30%. For the same molecule, the “metabolic pathway (in words)” value in data set [13] (mouse liver homogenate, 1 hr) is listed as “attacked by O-dealkylation to produce either one or both of the monophenolic derivatives”. The “Concentration of ethoxyaniline equivalents in Culex (mosquito)” value in data set [1] (Culex (mosquito), 33 days, 5.0 mg 3H-ethoxyaniline to Sorghum) is 0.28 ppm. Moreover, the “Concentration of ethoxyaniline equivalents in Gambusia (fish)” value in [1] (Gambusia (fish), 33 days, 5.0 mg 3H-ethoxyaniline to Sorghum) came to 0.04 ppm. For the same molecule, in data set [1] (H2O, 33 days, 5.0 mg 3H-ethoxyaniline to Sorghum), the “Concentration of ethoxyaniline equivalents in H2O” value amounted to 0.055 ppm. Besides, the “Concentration of ethoxyaniline equivalents in Oedogonium (algae)” value in data set [1] (Oedogonium (algae), 33 days, 5.0 mg 3H-ethoxyaniline to Sorghum) came to 1.09 ppm. Also, the “Concentration of ethoxyaniline equivalents in Physa (snail)” value in data set [1] (Physa (snail), 33 days, 5.0 mg 3H-ethoxyaniline to Sorghum) is 22.68 ppm. The “biodegradability (in words)” value in [1] (model ecosystem comparison) was “substantially biodegradable; also recorded: by far superior in both E.M. and B.I”. Moreover, in data set [1], the “ecological magnification (E.M.)” value is 0.7 fold. For the same molecule, the “Total 3H in Culex (mosquito) (ethoxyaniline equivalents)” value in data set [1] (total 3H, Culex, 33 days) is 1.0 ppm. For the same molecule, in data set [1] (total 3H, Gambusia, 33 days), the “Total 3H in Gambusia (fish) (ethoxyaniline equivalents)” value is reported as 0.30 ppm. The “Total 3H in H2O (ethoxyaniline equivalents)” value in data set [1] (total 3H, H2O, 33 days) was 0.363 ppm. In addition, the “Total 3H in Oedogonium (algae) (ethoxyaniline equivalents)” value in data set [1] (total 3H, Oedogonium, 33 days) is reported as 3.03 ppm. For the same molecule, the “Total 3H in Physa (snail) (ethoxyaniline equivalents)” value in data set [1] (total 3H, Physa, 33 days) was determined as 36.0 ppm.

`COc1ccc(C(c2ccc(OC)cc2)C(Cl)(Cl)Cl)cc1` [methoxychlor, 1,1,1-trichloro-,2,2-bis(p-methoxyphenyl)ethane]: the “accumulation in animal tissues (in words)” value in data set [3] is “not generally accumulated in animal tissues”. Also, in data set [4], the “insecticidal activity (in words)” value was “considerably less insecticidal activity than DDT towards other species of insects”. The “susceptibility to MFO enzymes (in words)” value in [5] is “readily attacked by MFO enzymes”.
